Source: ChEMBL document CHEMBL6127100, “Plant based steroidal and triterpenoid sapogenins: Chemistry on diosgenin and biological aspects” (Eur J Med Chem, 2024)
Values belong to the compound of their own block, whether it stands above or below them.

Assays:
[1] = test system: BT-474; assay: Cytotoxicity against human BT-474 cells; type: functional, cell-based
[2] = test system: U-937; assay: Cytotoxicity against human U-937 cells; type: functional, cell-based
[3] = test system: DU-145; assay: Cytotoxicity against human DU-145 cells; type: functional, cell-based
[4] = test system: U-937; assay: Antiproliferative activity against human U-937 cells assessed as inhibition of cell growth incubated for 72 hrs by cell-titer glo assay; type: functional, cell-based; details: U-937, 72 h
[5] = test system: MDA-MB-231; assay: Cytotoxicity against human MDA-MB-231 cells; type: functional, cell-based
[6] = test system: CCRF-CEM; assay: Cytotoxicity against human CCRF-CEM cells; type: functional, cell-based
[7] = test system: WiDr; assay: Antiproliferative activity against human WiDr cells assessed as inhibition of cell growth incubated for 48 hrs by tryphan blue dye based assay; type: functional
[8] = test system: A549; assay: Antiproliferative activity against human A549 cells assessed as inhibition of cell growth incubated for 48 hrs by tryphan blue dye based assay; type: functional; details: A549, 48 h
[9] = test system: SW1573; assay: Antiproliferative activity against human SW1573 cells assessed as inhibition of cell growth incubated for 48 hrs by tryphan blue dye based assay; type: functional; details: SW1573, 48 h
[10] = test system: HBL; assay: Antiproliferative activity against human HBL cells assessed as inhibition of cell growth incubated for 48 hrs by tryphan blue dye based assay; type: functional
[11] = test system: T47D; assay: Antiproliferative activity against human T47D cells assessed as inhibition of cell growth incubated for 48 hrs by tryphan blue dye based assay; type: functional
[12] = test system: HeLa; assay: Antiproliferative activity against human HeLa cells assessed as inhibition of cell growth incubated for 48 hrs by tryphan blue dye based assay; type: functional
[13] = test system: MCF7; assay: Cytotoxicity against human MCF7 cells assessed as reduction in cell viability incubated for 24 hrs by MTT assay; type: functional, cell-based; details: MCF7, 24 h
[14] = test system: HeLa; assay: Cytotoxicity against human HeLa cells assessed as reduction in cell viability incubated for 24 hrs by MTT assay; type: functional, cell-based
[15] = test system: HeLa; assay: Growth inhibition of human HeLa cells; type: functional
[16] = test system: A549; assay: Anticancer activity against human A549 cells assessed as inhibition of cell growth incubated for 48 hrs by MTT assay; type: functional, cell-based; details: A549, 48 h
[17] = test system: PC-9; assay: Anticancer activity against human PC-9 cells assessed as inhibition of cell growth incubated for 48 hrs by MTT assay; type: functional, cell-based; details: PC-9, 48 h
[18] = test system: HeLa; assay: Antiproliferative activity against human HeLa cells assessed as reduction in cell growth; type: functional, cell-based
[19] = test system: HepG2; assay: Antiproliferative activity against human HepG2 cells assessed as reduction in cell viability incubated for 48 hrs by MTT assay; type: functional, cell-based; details: HepG2, 48 h
[20] = test system: T98G; assay: Antiproliferative activity against human T98G cells assessed as inhibition of cell growth incubated for 72 hrs by celltiter-glo assay; type: functional, cell-based
[21] = test system: RAW264.7; assay: Anti-inflammatory activity in LPS-induced mouse RAW264.7 cells assessed as inhibition of IL-6 production at by ELISA; type: functional; design: scale not given: the % may be the effect or the level left
[22] = test system: Jurkat; assay: Cytotoxicity against human Jurkat cells assessed as reduction in cell viability incubated for 24 hrs by MTT assay; type: functional, cell-based
[23] = test system: RAW264.7; assay: Anti-inflammatory activity in LPS-induced mouse RAW264.7 cells assessed as reduction in TNF-alpha production at by ELISA; type: functional; design: scale not given: the % may be the effect or the level left
[24] = test system: MDA-MB-231; assay: Cytotoxicity against human MDA-MB-231 cells assessed as reduction in cell viability incubated for 24 hrs by MTT assay; type: functional, cell-based; details: MDA-MB-231, 24 h
[25] = test system: HeLa; assay: Antiproliferative activity against human HeLa cells assessed as reduction in cell growth by MTT assay; type: functional, cell-based
[26] = test system: RAW264.7; assay: Antiinflammatory activity in LPS-induced mouse RAW264.7 cells assessed as inhibition of IL-6 production pretreated for 1 hr followed by LPS stimulation and measured after 3 hrs by ELISA; type: functional; design: scale not given: the % may be the effect or the level left; details: time 4 hrs
[27] = test system: RAW264.7; assay: Anti-inflammatory activity in mouse RAW264.7 cells assessed as inhibition of LPS-induced TNFalpha production preincubated for 1 hr followed by LPS addition and measured after 24 hrs by ELISA; type: functional; design: scale not given: the % may be the effect or the level left; details: time 25 hrs
[28] = test system: MCF7; assay: Cytotoxicity against human MCF7 cells; type: functional, cell-based
[29] = test system: FaDu; assay: Cytotoxicity against human FaDu cells assessed as reduction in cell growth incubated for 48 hrs by SRB assay; type: functional, cell-based
[30] = test system: A549; assay: Cytotoxicity against human A549 cells; type: functional, cell-based
[31] = test system: DU-145; assay: Cytotoxicity against human DU-145 cells assessed as reduction in cell growth incubated for 48 hrs by SRB assay; type: functional, cell-based; details: DU-145, 48 h
[32] = test system: DU-145; assay: Antiproliferative activity against human DU-145 cells; type: functional, cell-based
[33] = test system: DLD-1; assay: Cytotoxicity against human DLD-1 cells assessed as reduction in cell growth incubated for 48 hrs by SRB assay; type: functional, cell-based; details: DLD-1, 48 h
[34] = test system: A549; assay: Cytotoxicity against human A549 cells assessed as reduction in cell growth incubated for 48 hrs by SRB assay; type: functional, cell-based; details: A549, 48 h
[35] = test system: DLD-1; assay: Cytotoxicity against human DLD-1 cells; type: functional, cell-based
[36] = test system: MCF7; assay: Cytotoxicity against human MCF7 cells assessed as reduction in cell growth incubated for 48 hrs by SRB assay; type: functional, cell-based; details: MCF7, 48 h
[37] = test system: FaDu; assay: Antiproliferative activity against human FaDu cells; type: functional, cell-based
[38] = test system: HepG2; assay: Antiproliferative activity against human HepG2 cells assessed as reduction in cell growth; type: functional, cell-based

SMILES: C[C@@H]1CC[C@@]2(OC1)O[C@H]1C[C@H]3[C@@H]4CC(n5cc(-c6ccccc6)nn5)C5(O)C[C@@H](O)CC[C@]5(C)[C@H]4CC[C@]3(C)[C@H]1[C@@H]2C (stereo partly specified)
- IC50 [1]: 13.2 µM
- IC50 [2]: 7.9 µM
- IC50 [3]: 7.9 µM
- IC50 [4]: 8.22 µM
- IC50 [5]: 3.32 µM
- IC50 [6]: 3.9 µM

SMILES: CC(=O)O[C@H]1CC[C@@]2(C)C(=CC[C@H]3[C@@H]4C[C@@H]5O[C@H](CC[C@@H](C)CO)[C@@H](C)[C@@H]5[C@@]4(C)CC[C@@H]32)C1
- IC50 [13]: 11 µM
- IC50 [14]: 11.4 µM

SMILES: COc1ccc(-c2cn(C3C[C@H]4[C@@H]5C[C@@H]6O[C@]7(CC[C@@H](C)CO7)[C@@H](C)[C@@H]6[C@@]5(C)CC[C@@H]4[C@@]4(C)CC[C@H](O)CC34O)nn2)cc1 (stereo partly specified)
- IC50 [1]: 4.3 µM
- IC50 [20]: 11.4 µM
- IC50 [3]: 19.8 µM
- IC50 [4]: 5.41 µM
- IC50 [5]: 5.78 µM

SMILES: CC(=O)O[C@H]1CC[C@@]2(C)C(=CC[C@H]3[C@@H]4C[C@@H]5O[C@H](CC[C@@H](C)COC(=O)N6CCN(C)CC6)[C@@H](C)[C@@H]5[C@@]4(C)CC[C@@H]32)C1
- Activity [21]: 49%
- IC50 [22]: 15.8 µM
- Activity [23]: 33.66%
- IC50 [24]: 13.5 µM

SMILES: C[C@H]1CO[C@@]2(O[C@H]3C[C@H]4[C@@H]5/C(=N/CCCCC(=O)O)C=C6C[C@@H](O)CC[C@]6(C)[C@H]5CC[C@]4(C)[C@H]3[C@@H]2C)/C(=N/O)C1
- Activity [26]: 23.3%
- Activity [27]: 47.7%

SMILES: C[C@@H]1CC[C@@]2(OC1)O[C@H]1C[C@H]3[C@@H]4CC=C5C[C@@H](OC6=C(Cl)C(=O)c7ccccc7C6=O)CC[C@]5(C)[C@H]4CC[C@]3(C)[C@H]1[C@@H]2C
- IC50 [38]: 17.5 µM

The next lines start with results.

- IC50 [8]: 1.7 µM
- IC50 [9]: 2.2 µM
- IC50 [11]: 3.2 µM
- IC50 [12]: 3.3 µM
SMILES: CC(CCC[C@H](C)[C@H]1[C@@H](O)C[C@H]2[C@@H]3CC=C4C[C@@H](O)CC[C@]4(C)[C@H]3CC[C@]12C)C[Se]C#N (stereo partly specified)
- IC50 [7]: 5.5 µM
- IC50 [10]: 2.2 µM

- GI50 [15]: 17 µM
SMILES: CC(=O)O[C@@H]1C=C2/C(=N/O)C[C@H]3[C@@H]4C[C@@H]5OC(=O)[C@@H](C)[C@@H]5[C@@]4(C)CC[C@@H]3[C@@]2(C)CC1
- IC50 [1]: 14.1 µM
- IC50 [3]: 7.81 µM

- IC50 [16]: 5.1 µM
- IC50 [17]: 8.7 µM
SMILES: C[C@@H]1CC[C@@]2(OC1)O[C@H]1C[C@H]3[C@@H]4CCC5(OC#N)C[C@@H](O)CC[C@]5(C)[C@H]4CC[C@]3(C)[C@H]1[C@@H]2C (stereo partly specified)

- IC50 [18]: 16 µM
SMILES: Cc1ccc2c(n1)C(=O)C(Cl)C(O[C@H]1CC[C@@]3(C)C(=CC[C@H]4[C@@H]5C[C@@H]6O[C@]7(CC[C@@H](C)CO7)[C@@H](C)[C@@H]6[C@@]5(C)CC[C@@H]43)C1)C2=O (stereo partly specified)

- IC50 [19]: 19 µM
SMILES: C[C@@H]1CC[C@@]2(OC1)O[C@H]1C[C@H]3[C@@H]4CC=C5C[C@@H](OC(=O)[C@@H](N)CCCNC(=N)N)CC[C@]5(C)[C@H]4CC[C@]3(C)[C@H]1[C@@H]2C

- IC50 [25]: 11.8 µM
SMILES: CC(=O)OC[C@H](C)CCC(=O)[C@@H](C)[C@H]1[C@@H](OC(C)=O)C[C@H]2[C@@H]3CC=C4C[C@H](N=[N+]=[N-])CC[C@]4(C)[C@H]3CC[C@]12C

- IC50 [32]: 12.8 µM
SMILES: C[C@H]1CO[C@@]2(O[C@H]3C[C@H]4[C@@H]5/C(=N/CCCCCCC(=O)O)C=C6C[C@@H](O)CC[C@]6(C)[C@H]5CC[C@]4(C)[C@H]3[C@@H]2C)/C(=N/O)C1
- IC50 [28]: 15.8 µM
- Activity [26]: 19.73%
- IC50 [29]: 16.6 µM
- IC50 [30]: 15.8 µM
- IC50 [31]: 16.6 µM
- IC50 [33]: 16 µM
- IC50 [34]: 17.1 µM
- Activity [27]: 41.72%
- IC50 [35]: 14.6 µM
- IC50 [36]: 15.6 µM
- IC50 [37]: 15.2 µM
